The record followed here is ChEMBL document CHEMBL1201862, “PubChem BioAssay data set” (2004).

Holding throughout (assay): DTP human tumour cell line panel, 48 h
For assay [1], the system named is 786-0.
In assay [2] the test system is EKVX.
Assay [3] relates to HT-29.
Assay [4] concerns KM12.
For assay [5], the system named is LOX IMVI.
The test system of assay [6] is M14.
For assay [7], the system named is NCI-H522.
Assay [8] has as its system OVCAR-3.
The test system of assay [9] is OVCAR-4.
The subject of assay [10] is RPMI-8226.
The subject of assay [11] is SK-MEL-28.
For assay [12], the system named is SK-OV-3.
The test system of assay [13] is U-251.
Assay [14] relates to UO-31.
For assay [15], the system named is ACHN.
In assay [16] the test system is NCI-H226.

For orientation: GI50 means the concentration that inhibits growth by half.

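Test compounds were applied to cells in 96-well plates for 48 hours at 5 doses. Abbreviation: GI50, concentration required for 50% inhibition of growth.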 Active and inactive are the calls of the source. Rule as the data show it: active = GI50 up to about 1.1 µM and inactive = higher.

Regarding `COC(=O)C1CC2(CC3=C1CCCC3)OCCO2` (stereo unspecified), the GI50 in [1], in [2], in [3], in assay [4], in assay [5] and in [6] was > 100 µM (inactive) in each case. Besides, the GI50 in assay [7], in assay [8], in [9], in assay [10], in assay [11] and in [12] was > 100 µM (inactive) throughout. Moreover, the GI50 in assay [13] and in assay [14] was > 100 µM (inactive) each time.
Consider `CC1=N/C(=C\c2ccc([N+](=O)[O-])cc2)C(=O)O1`, for which the GI50 in assay [1], in [15], in assay [2], in assay [3], in assay [4] and in assay [6] was > 100 µM (inactive) throughout. For the same molecule, the GI50 in assay [7], in assay [8], in [9], in [10], in assay [11] and in [13] was > 100 µM (inactive) throughout. Besides, in [14], the GI50 is > 100 µM (inactive).
Regarding `C[C@]12CC[C@H](O)CC1=CC[C@@H]1C2CC[C@]2(C)Nc3c(cnn3-c3ccccc3)CC12` (stereo partly specified), the GI50 in [1] is 1.56 µM (inactive); in [15], 3.26 µM (inactive); in [2] it was 6.07 µM (inactive); in assay [3], 1.89 µM (inactive); in assay [4], 2.05 µM (inactive); in assay [6], 6.34 µM (inactive). Further, the GI50 in assay [16] was 8.57 µM (inactive); in assay [8], 5.9 µM (inactive); in assay [9] it was 7.23 µM (inactive); in assay [10], 0.361 µM (active); in assay [11], 2.86 µM (inactive); in [12], 4.07 µM (inactive). Moreover, the GI50 was 2.36 µM (inactive) in assay [13] and 5.51 µM (inactive) in assay [14].
Take `CN(C)CC/C(=N\Nc1ccc([N+](=O)[O-])cc1)c1ccccc1`: the GI50 in [1] was 12.6 µM (inactive); in [15] it was 2.61 µM (inactive); in assay [2] it was 14.3 µM (inactive); in [3], 9.23 µM (inactive); in assay [4], 9.31 µM (inactive); in assay [5], 5.25 µM (inactive). In addition, the GI50 in assay [6] was 13.9 µM (inactive); in assay [7] it was 13.9 µM (inactive); in assay [8] it was 16.3 µM (inactive); in [9], 18.3 µM (inactive); in assay [10], 11 µM (inactive); in assay [11], 12.7 µM (inactive). Moreover, the values for the GI50 in assay [12], in [13] and in [14] were 16.1 µM (inactive), 12.4 µM (inactive) and 2.1 µM (inactive), respectively.
For `Cc1ccccc1C(CCCO)C(=O)O` (stereo unspecified), the GI50 in [1], in [15], in assay [2], in assay [3], in assay [4] and in [5] was > 100 µM (inactive) in each case. The GI50 in [6], in assay [7], in assay [8], in assay [9], in assay [10] and in [11] was > 100 µM (inactive) in each case. Besides, the GI50 in assay [12], in [13] and in assay [14] was > 100 µM (inactive) each time.
